# Laboratory results from ChEMBL document CHEMBL3779806, “5-Carba-pterocarpens: A new scaffold with anti-HCV activity” (Eur J Med Chem, 2016).
# Activity calls are given as the source filed them. The rule behind the calls is not given here.
# Tests used:
# Hepatitis C virus [1] = experiment: Antiviral activity against HCV genotype 1b infected in Huh7/Rep-Feo1b cells assessed as inhibition of viral RNA replication at 50 uM after 48 hrs by luciferase reporter gene assay relative to control; assay type: functional, Hepacivirus hominis; conditions: Huh-7, 48 h
# Hepatitis C virus [2] = experiment: Antiviral activity against HCV genotype 2a infected in Huh7.5-FGR-JC1-Rluc2A cells assessed as inhibition of viral RNA replication at 50 uM after 48 hrs by luciferase reporter gene assay relative to control; assay type: functional, Hepacivirus hominis
# Hepatitis C virus [3] = experiment: Antiviral activity against HCV genotype 1b infected in Huh7/Rep-Feo1b cells assessed as inhibition of viral RNA replication after 48 hrs by luciferase reporter gene assay; assay type: functional, organism-based, Hepacivirus hominis; conditions: Huh-7, 48 h
# Hepatitis C virus [4] = experiment: Antiviral activity against HCV genotype 2a infected in Huh7.5-FGR-JC1-Rluc2A cells assessed as inhibition of viral RNA replication after 48 hrs by luciferase reporter gene assay; assay type: functional, organism-based, Hepacivirus hominis
# [5] = Cytotoxicity against human Huh7.5 cells assessed as reduction in cell viability after 48 hrs by MTS assay; assay type: cell-based, Huh-7
# [6] = Selectivity index, ratio of CC50 for human Huh7.5 cells to EC50 for HCV genotype 1b infected in Huh7/Rep-Feo1b cells; set-up: species or system Huh-7
# [7] = Selectivity index, ratio of CC50 for human Huh7.5 cells to EC50 for HCV genotype 2a infected in Huh7.5-FGR-JC1-Rluc2A cells; set-up: species or system Huh-7
# Hepacivirus hominis [8] = experiment: Inhibition of recombinant HCV NS5B RNA dependent RNA polymerase activity assessed as reduction in [alpha-32P]UTP incorporation using poly(rA)-U12 as template/primer at 50 uM incubated for 1 hr by liquid scintillation counting method relative to control
# Hepacivirus hominis [9] = experiment: Inhibition of HCV NS5B RNA dependent RNA polymerase activity infected in BHK-NS5B-FRLuc cells at 50 uM incubated for 40 hrs by dual luciferase reporter gene assay relative to control; assay type: cell-based
# [10] = Cytotoxicity against hamster BHK cells assessed as cell viability at 50 uM after 40 hrs by luciferase reporter gene assay relative to control; assay type: cell-based, Mesocricetus auratus; conditions: read-out: Activity
Structure (SMILES),inhibition at 50 µM (Hepatitis C virus [1]),inhibition at 50 µM (Hepatitis C virus [2]),EC50 (Hepatitis C virus [3]),EC50 (Hepatitis C virus [4]),CC50 at 48 h [5],Ratio CC50/EC50 [6],Ratio CC50/EC50 [7],inhibition (Hepacivirus hominis [8]),inhibition (Hepacivirus hominis [9]),"viability at 40 h, 50 µM [10]"
Oc1ccc2c3c(oc2c1)-c1cccc(O)c1CC3,96.7%,99.7%,5.9 µM,2.4 µM,59.5 µM,10.1,24.7,38%,33.3%,≥ 80%
COc1ccc2c(c1)CCc1c-2oc2cc(O)ccc12,97.9%,99.8%,19.9 µM,1.5 µM,106 µM,5.3,70.6,36.2%,37%,≥ 80%
Oc1ccc2c3c(oc2c1)-c1ccccc1CC3,90.1%,97.2%,13.9 µM,5.7 µM,99.9 µM,7.2,15.8,inactive,inactive,≥ 80%
c1ccc2c(c1)CCc1c-2oc2ccccc12,50.7%,86.5%,40.7 µM,15.3 µM,> 200 µM,>4.9,>13,inactive,inactive,≥ 80%
Oc1ccc2c3c(oc2c1)-c1cc(O)c(O)cc1CC3,98.6%,96.9%,5.5 µM,6.1 µM,115 µM,20.9,18.8,inactive,inactive,≥ 80%
Oc1ccc2c(c1)-c1oc3ccccc3c1CC2,95.1%,98.4%,27.9 µM,2.3 µM,96.8 µM,3.5,42.1,38.5%,39.4%,≥ 80%
Oc1ccc2c(c1)CCc1c-2oc2cc(O)ccc12,98.1%,99.6%,12.3 µM,1.9 µM,84.5 µM,6.8,44.4,inactive,inactive,≥ 80%
Oc1ccc2c(c1)-c1oc3cc(O)ccc3c1CC2,49.3%,97.8%,–,6 µM,157 µM,–,26.1,33.1%,36.1%,≥ 80%
